For 69 molecules, IC50 results are on record in patent publication US9346769B2, “Tetrazolones as inhibitors of fatty acid synthase” (Infinity Pharmaceuticals, Inc., priority 2010, dated 2016).

A value given as a limit tells only on which side of the number the result lay.

For the assay, the target named is T1, human FASN (Homo sapiens, UniProt P49327).
T1 construct: was purified from SKBR3 cells using procedures modified from those in Jayakumar et al; endogenous in cells; host or cells: SKBR3 human breast cancer cells (ATCC); Endogenous enzyme purified by ammonium sulfate precipitation and a mono Q column
T1 sequence (P49327 whole entry): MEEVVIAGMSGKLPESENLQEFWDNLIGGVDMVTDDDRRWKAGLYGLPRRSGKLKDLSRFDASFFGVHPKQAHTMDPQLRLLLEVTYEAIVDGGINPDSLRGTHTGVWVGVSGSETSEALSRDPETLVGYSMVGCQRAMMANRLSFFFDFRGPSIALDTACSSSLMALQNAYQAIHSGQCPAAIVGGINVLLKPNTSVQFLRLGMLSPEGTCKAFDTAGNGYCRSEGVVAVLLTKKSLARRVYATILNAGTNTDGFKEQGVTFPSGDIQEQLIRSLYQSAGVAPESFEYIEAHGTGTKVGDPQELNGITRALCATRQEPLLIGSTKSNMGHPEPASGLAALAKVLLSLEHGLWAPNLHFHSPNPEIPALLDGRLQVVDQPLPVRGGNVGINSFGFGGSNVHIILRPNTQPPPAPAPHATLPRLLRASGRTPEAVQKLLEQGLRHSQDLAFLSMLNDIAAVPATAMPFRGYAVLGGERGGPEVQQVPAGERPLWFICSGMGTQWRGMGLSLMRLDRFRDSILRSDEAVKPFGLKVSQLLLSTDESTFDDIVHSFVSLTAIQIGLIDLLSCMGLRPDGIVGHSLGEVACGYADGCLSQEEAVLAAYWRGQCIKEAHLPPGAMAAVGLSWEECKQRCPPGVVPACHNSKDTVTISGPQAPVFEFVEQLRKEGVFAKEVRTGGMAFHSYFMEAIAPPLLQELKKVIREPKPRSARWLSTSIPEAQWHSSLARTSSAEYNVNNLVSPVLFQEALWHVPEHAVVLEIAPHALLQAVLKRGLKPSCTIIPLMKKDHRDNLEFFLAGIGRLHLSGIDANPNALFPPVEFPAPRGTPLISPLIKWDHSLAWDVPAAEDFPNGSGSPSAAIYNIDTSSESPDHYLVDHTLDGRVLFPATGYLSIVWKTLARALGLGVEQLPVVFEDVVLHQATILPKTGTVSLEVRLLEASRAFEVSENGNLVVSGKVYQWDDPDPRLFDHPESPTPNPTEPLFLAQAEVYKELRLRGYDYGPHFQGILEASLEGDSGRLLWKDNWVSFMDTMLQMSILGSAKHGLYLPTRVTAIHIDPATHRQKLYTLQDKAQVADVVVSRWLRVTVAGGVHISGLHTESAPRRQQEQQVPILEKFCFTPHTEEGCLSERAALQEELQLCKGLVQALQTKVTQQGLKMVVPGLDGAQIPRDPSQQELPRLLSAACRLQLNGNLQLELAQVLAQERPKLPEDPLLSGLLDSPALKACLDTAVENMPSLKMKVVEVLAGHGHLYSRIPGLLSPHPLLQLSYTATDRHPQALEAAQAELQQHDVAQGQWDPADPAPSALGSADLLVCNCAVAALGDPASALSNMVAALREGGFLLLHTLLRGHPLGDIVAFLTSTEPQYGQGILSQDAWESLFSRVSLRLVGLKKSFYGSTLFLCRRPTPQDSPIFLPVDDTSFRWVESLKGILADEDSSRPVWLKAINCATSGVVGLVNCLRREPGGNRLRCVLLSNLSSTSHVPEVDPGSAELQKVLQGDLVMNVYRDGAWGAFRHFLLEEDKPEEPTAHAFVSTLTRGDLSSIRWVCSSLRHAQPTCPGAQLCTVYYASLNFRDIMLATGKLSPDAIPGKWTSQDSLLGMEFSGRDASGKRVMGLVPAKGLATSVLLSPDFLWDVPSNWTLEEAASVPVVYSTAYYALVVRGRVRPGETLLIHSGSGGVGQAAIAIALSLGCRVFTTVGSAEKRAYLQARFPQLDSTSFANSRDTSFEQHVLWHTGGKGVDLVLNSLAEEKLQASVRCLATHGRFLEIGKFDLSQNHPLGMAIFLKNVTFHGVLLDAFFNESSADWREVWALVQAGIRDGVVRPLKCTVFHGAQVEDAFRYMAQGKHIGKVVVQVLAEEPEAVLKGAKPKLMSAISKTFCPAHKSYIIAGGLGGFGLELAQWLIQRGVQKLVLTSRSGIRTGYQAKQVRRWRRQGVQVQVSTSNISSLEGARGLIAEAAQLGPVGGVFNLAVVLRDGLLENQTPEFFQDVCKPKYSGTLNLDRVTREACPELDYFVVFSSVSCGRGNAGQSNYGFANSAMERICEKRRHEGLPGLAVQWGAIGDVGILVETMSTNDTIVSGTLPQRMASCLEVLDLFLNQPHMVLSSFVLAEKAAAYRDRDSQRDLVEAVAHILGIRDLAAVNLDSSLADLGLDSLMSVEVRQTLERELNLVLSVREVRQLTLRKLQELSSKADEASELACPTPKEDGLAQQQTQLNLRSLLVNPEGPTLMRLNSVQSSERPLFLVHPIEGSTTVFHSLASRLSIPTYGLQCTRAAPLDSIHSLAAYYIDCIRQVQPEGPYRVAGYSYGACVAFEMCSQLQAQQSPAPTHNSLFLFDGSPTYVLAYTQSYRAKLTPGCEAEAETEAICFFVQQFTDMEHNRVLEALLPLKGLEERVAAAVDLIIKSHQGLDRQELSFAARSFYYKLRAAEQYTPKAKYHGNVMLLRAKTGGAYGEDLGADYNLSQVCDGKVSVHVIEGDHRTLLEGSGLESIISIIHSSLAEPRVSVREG
In words: FASN NADPH Consumption Assay. Particulars: human FASN purified from SKBR3 cells; starred symbols. It is filed as biochemical. Here is the method: Human FASN protein (SEQ ID NO. 1) was purified from SKBR3 cells using procedures modified from those in Jayakumar et al. PNAS 1995, 92:8695-8699. SKBR3 cells were obtained from ATCC and grown in DMEM high glucose medium supplemented with 10% FBS, 1 μg/mL bovine pancreas insulin, 100 U/mL penicillin and 100 µg/mL streptomycin. The confluent cells were trypsinized and washed three times with PBS buffer before frozen in liquid N2 and stored at −80° C. Frozen cells were thawed on ice and resuspended in lysis buffer (25 mM Tris-HCl, pH 7.0, 15 mM NaCl, 1 mM EDTA, and 1 mM DTT) with protease inhibitors. The cells were lysed by sonication, and the cell debris was removed by centrifugation at 20,000 rpm for 30 min. To the supernatant, neutralized saturated ammonium sulfate solution was added to a final concentration of 35%. The solution was left on ice for 1 hr, and the precipitated proteins were harvested by centrifugation at 20,000 rpm for 30 min. The proteins were redissolved in lysis buffer without NaCl and loaded on a mono Q column. Bound proteins were eluted with a linear gradient of NaCl in lysis buffer. Each fraction was analyzed by SDS-PAGE and FASN NADPH consumption assay. The fractions containing FASN were pooled and concentrated to 2-3 mg/mL. Glycerol was added to 20%, and the protein was frozen in liquid N2 and stored at −80° C.
All chemicals were purchased from Sigma (St. Louis, Mo.). The procedures of NADPH consumption assay were similar to those described in Cox et al., PNAS 1983, 80:4233-4237. On a 96-well polypropylene microplate, dilution series (typical concentrations 60 nM-1.0 mM) of test compounds were prepared in DMSO, of which 4.0 μL each was transferred to a black polystyrene assay microplate and mixed with 36 μL FASN assay buffer (50 mM potassium phosphate, pH 7.0, 1.0 mM EDTA, 0.01% NP-40) plus 5.0 mM fresh DTT. FASN protein (40 μL 150 nM FASN) was added per well, and the microplate was incubated at 37° C. for 30 min. Enzyme activity measurement was initiated by addition of 20 μL 5× substrate mixture to final concentrations of 60 nM FASN, 2.4 nM-40 μM compound, 0.2 mM NADPH, 50 μM butyryl-CoA, 0.5 mM malonyl-CoA in 100 μL assay buffer plus 5.0 mM DTT and 4.0% DMSO. NADPH consumption was monitored kinetically by fluorescence (λEx=340 nm, λEm=460 nm) on an EnVision 2100 multilabel plate reader (Perkin Elmer, Waltham, Mass.). FASN enzyme activity (slope) in the presence of 4% DMSO was used as maximum control, whereas background (minimum control) was measured by omission of malonyl-CoA in the substrate mixture. Inhibition curves were fitted by a logistic function to yield IC50 values:
Compounds were assayed as inhibitors of human FASN using the above-described FASN Scintillation Proximity Flashplate Assay (IC50; nM) or FASN NADPH Consumption Assay (*) (IC50; nM). The corresponding activity of the isolated compound is also provided along with the measured mass (ES^+).

In general, IC50 refers to the concentration that inhibits the measured activity by half. Read a low IC50 as higher potency. In turn, `CCN(C(=O)n1nnn(-c2ccccc2)c1=O)c1ccc(C(=O)O)c(OC)c1` yielded an IC50 of 0.06 to 0.25 µM.

`CCN(C(=O)n1nnn(-c2ccccc2Oc2ccccc2)c1=O)c1ccccc1F` displayed an IC50 of 0.06 to 0.25 µM. In turn, `O=C(N(c1ccccc1)c1ccccc1)n1nnn(-c2ccccc2Oc2ccccc2)c1=O` registered a 50% inhibitory concentration (IC50) of 0.06 to 0.25 µM. As for `CCN(C(=O)n1nnn(-c2ccccc2-c2ccccc2)c1=O)c1ccccc1F`, the IC50 lay within 0.06 to 0.25 µM.

Molecule `CCN(C(=O)n1nnn(-c2ccccc2OC)c1=O)c1ccc(OC)c(C(=O)O)c1` showed an IC50 of 0.25 to 1 µM. `CCCCCCN(C(=O)n1nnn(-c2ccccc2OC)c1=O)c1cc(C(=O)OCc2ccccc2)ccc1OC`: the IC50 lay within 1 to 10 µM. `CCN(C(=O)n1nnn(-c2ccccc2OC)c1=O)c1ccc(C(=O)O)cc1` gave an IC50 of 0.06 to 0.25 µM. With `CCN(C(=O)n1nnn(-c2ccccc2OC)c1=O)c1cc(C(=O)O)ccc1OC` the figure was 0.06 to 0.25 µM; with `COc1ccc(C(=O)OCc2ccccc2)cc1N(CCCCc1ccccc1)C(=O)n1nnn(-c2ccccc2OC)c1=O`, 1 to 10 µM. `COc1ccc(C(=O)O)cc1N(CCCCc1ccccc1)C(=O)n1nnn(-c2ccccc2OC)c1=O` registered an IC50 of 0.25 to 1 µM. With `COc1cccc(N(C)C(=O)n2nnn(-c3c(F)cccc3F)c2=O)c1`, the IC50 is 0.06 to 0.25 µM.

For `O=C(N(c1ccccc1)c1ccccc1)n1nnn(-c2c(F)cccc2F)c1=O`, the IC50 lay in the range of 0.06 to 0.25 µM.

In turn, `CCN(C(=O)n1nnn(-c2c(F)cccc2F)c1=O)c1ccc(Cl)cc1` yielded an IC50 of 0.06 to 0.25 µM. The same measure for `CN(C(=O)n1nnn(-c2c(F)cccc2F)c1=O)c1ccccc1Br`: 0.06 to 0.25 µM; for `CCN(C(=O)n1nnn(-c2c(F)cccc2F)c1=O)c1c(F)cccc1Cl`: 0.06 to 0.25 µM. As to `CN(C(=O)n1nnn(-c2c(F)cccc2F)c1=O)c1ccccc1F`, the IC50 lay in the range of 0.06 to 0.25 µM. With `CN(C(=O)n1nnn(-c2c(F)cccc2F)c1=O)c1cccc(Br)c1` the figure was 0.06 to 0.25 µM; with `CCN(C(=O)n1nnn(-c2c(F)cccc2F)c1=O)c1cccc(F)c1F`, < 0.06 µM. The same measure for `CCN(C(=O)n1nnn(-c2c(F)cccc2F)c1=O)c1ccc(C)cc1`: 0.06 to 0.25 µM; for `C=CCN(C(=O)n1nnn(-c2c(F)cccc2F)c1=O)c1ccccc1`: < 0.06 µM.

For `CCN(C(=O)n1nnn(-c2c(F)cccc2F)c1=O)c1cc(F)ccc1F`, the IC50 is < 0.06 µM. In turn, `CCN(C(=O)n1nnn(-c2c(F)cccc2F)c1=O)c1ccccc1C` showed an IC50 of 0.06 to 0.25 µM. With `CCN(C(=O)n1nnn(-c2c(F)cccc2F)c1=O)c1ccc(C(=O)OCc2ccccc2)cc1` the figure was 0.06 to 0.25 µM; with `CN(C(=O)n1nnn(-c2c(F)cccc2F)c1=O)c1cc(F)cc(F)c1`, 0.06 to 0.25 µM; with `CCCN(C(=O)n1nnn(-c2c(F)cccc2F)c1=O)c1ccccc1`, 0.06 to 0.25 µM.

Consider `CCN(C(=O)n1nnn(-c2c(F)cccc2F)c1=O)c1ccccc1`, for which the IC50 was < 0.06 µM.

In turn, `CCN(C(=O)n1nnn(-c2c(F)cccc2F)c1=O)c1cccc2ccccc12` had an IC50 of 0.06 to 0.25 µM. In turn, `CCN(C(=O)n1nnn(-c2c(F)cccc2F)c1=O)c1ccc([N+](=O)[O-])cc1` displayed an IC50 of 0.06 to 0.25 µM.

In the case of `CN(C(=O)n1nnn(-c2c(F)cccc2F)c1=O)c1ccccc1`, the IC50 is 0.06 to 0.25 µM. With `CCCCC#Cc1ccc(N(CC)C(=O)n2nnn(-c3c(F)cccc3F)c2=O)c(F)c1` the figure was 0.06 to 0.25 µM; with `CC(C)N(C(=O)n1nnn(-c2c(F)cccc2F)c1=O)c1cccc(C(=O)OCc2ccccc2)c1`, < 0.06 µM. For `CCN(C(=O)n1nnn(-c2c(F)cccc2F)c1=O)c1ccc(C(=O)OCc2ccccc2)c(OC)c1`, the IC50 is 0.06 to 0.25 µM.

Turning to `CCN(C(=O)n1nnn(-c2c(F)cccc2F)c1=O)c1ccc(C(=O)O)cc1`, the IC50 is < 0.06 µM. With `COc1ccc(C(=O)O)cc1N(CCCCc1ccccc1)C(=O)n1nnn(-c2c(F)cccc2F)c1=O` the figure was 0.06 to 0.25 µM.

Consider `CCN(C(=O)n1nnn(-c2c(F)cccc2F)c1=O)c1ccc(C(=O)NC(C)C)cc1F`, for which the IC50 is < 0.06 µM. Take `CCN(C(=O)n1nnn(-c2c(F)cccc2F)c1=O)c1ccc(C#Cc2ccccc2)cc1F`: the IC50 was 0.06 to 0.25 µM. In the case of `COc1ccc(C(=O)O)cc1N(CCCc1ccccc1)C(=O)n1nnn(-c2c(F)cccc2F)c1=O`, the IC50 lay within 0.06 to 0.25 µM. For the molecule `CCN(C(=O)n1nnn(-c2c(F)cccc2F)c1=O)c1ccc(N(S(C)(=O)=O)S(C)(=O)=O)cc1F`, the IC50 is < 0.06 µM. In turn, `CN(C(=O)n1nnn(-c2c(F)cccc2F)c1=O)c1ccc(Br)cc1` returned an IC50 of 0.06 to 0.25 µM.

For `CC(C)N(C(=O)n1nnn(-c2c(F)cccc2F)c1=O)c1ccccc1`, the IC50 fell in the range of 0.06 to 0.25 µM. `CN(C(=O)n1nnn(-c2c(F)cccc2F)c1=O)c1cccc(F)c1` registered an IC50 of 0.06 to 0.25 µM. The same measure for `CN(C(=O)n1nnn(-c2c(F)cccc2F)c1=O)c1ccccc1C(F)(F)F`: 0.06 to 0.25 µM; for `CCN(C(=O)n1nnn(-c2c(F)cccc2F)c1=O)c1ccc(C#CC(C)(C)C)cc1F`: 0.06 to 0.25 µM; for `CCN(C(=O)n1nnn(-c2c(F)cccc2F)c1=O)c1ccc(Cl)cc1Cl`: 0.06 to 0.25 µM. For `CN(C(=O)n1nnn(-c2c(F)cccc2F)c1=O)c1ccc(F)cc1`, the IC50 lay within 0.06 to 0.25 µM. `CCN(C(=O)n1nnn(-c2c(F)cccc2F)c1=O)c1ccc(CCc2ccccc2)cc1F` yielded a half-inhibitory concentration (IC50) of 0.06 to 0.25 µM.

As to `CCN(C(=O)n1nnn(-c2c(F)cccc2F)c1=O)c1ccccc1OC(F)(F)F`, the IC50 fell in the range of 0.06 to 0.25 µM.

Molecule `CCN(C(=O)n1nnn(-c2c(F)cccc2F)c1=O)c1ccccc1-c1ccccc1` showed an IC50 of 1 to 10 µM. With `CCCCC#Cc1ccc(N(C)C(=O)n2nnn(-c3c(F)cccc3F)c2=O)cc1` the figure was 0.25 to 1 µM. For `CN(C(=O)n1nnn(-c2c(F)cccc2F)c1=O)c1ccc(C#Cc2ccccc2)cc1`, the IC50 lay in the range of 0.06 to 0.25 µM. `CCN(C(=O)n1nnn(-c2c(F)cccc2F)c1=O)c1cccc(C)c1`: the IC50 is < 0.06 µM.

Turning to `CCOC(=O)c1ccc(N(C(=O)n2nnn(-c3c(F)cccc3F)c2=O)N(C)C)cc1`, the half-inhibitory concentration (IC50) is 0.06 to 0.25 µM. For `COc1ccccc1N(C)C(=O)n1nnn(-c2c(F)cccc2F)c1=O`, the IC50 was 0.25 to 1 µM. As for `CCN(C(=O)n1nnn(-c2c(F)cccc2F)c1=O)c1ccc(C#CCC2CCCCC2)cc1F`, the IC50 fell in the range of 0.06 to 0.25 µM. Regarding `CCN(C(=O)n1nnn(-c2c(F)cccc2F)c1=O)c1ccccc1[N+](=O)[O-]`, the IC50 is < 0.06 µM. Consider `CCN(C(=O)n1nnn(-c2c(F)cccc2F)c1=O)c1ccc(Br)cc1F`, for which the IC50 was in the range of 0.06 to 0.25 µM. Turning to `CN(C(=O)n1nnn(-c2c(F)cccc2F)c1=O)c1ccccc1Cl`, the IC50 is < 0.06 µM. `CCN(C(=O)n1nnn(-c2c(Cl)cccc2Cl)c1=O)c1cccc(C(=O)O)c1OC` displayed an IC50 of 1 to 10 µM. The same measure for `CCN(C(=O)n1nnn(-c2c(Cl)cccc2Cl)c1=O)c1ccc(Cl)c(C(=O)O)c1`: 0.06 to 0.25 µM; for `CCN(C(=O)n1nnn(-c2c(Cl)cccc2Cl)c1=O)c1ccc(NS(=O)(=O)C(F)(F)F)cc1`: 0.06 to 0.25 µM; for `CCN(C(=O)n1nnn(-c2c(Cl)cccc2Cl)c1=O)c1ccc(Cl)c(C(=O)OCc2ccccc2)c1`: 0.06 to 0.25 µM. `CCN(C(=O)n1nnn(-c2c(Cl)cccc2Cl)c1=O)c1ccc(C(=O)OCc2ccc(OC)cc2)c(Cl)c1` displayed an IC50 of 0.06 to 0.25 µM. The molecule `CCN(C(=O)n1nnn(-c2c(Cl)cccc2Cl)c1=O)c1ccccc1F` had an IC50 of 0.06 to 0.25 µM. As for `CCN(C(=O)n1nnn(-c2c(Cl)cccc2Cl)c1=O)c1cc(C(=O)O)ccc1Cl`, the IC50 is < 0.06 µM.

In turn, `CC(C)N(C(=O)n1nnn(-c2c(Cl)cccc2Cl)c1=O)c1ccccc1` yielded an IC50 of 0.25 to 1 µM. `CCN(C(=O)n1nnn(-c2c(Cl)cccc2Cl)c1=O)c1cccc(C#N)c1` returned an IC50 of 0.06 to 0.25 µM.

For the molecule `CCN(C(=O)n1nnn(-c2c(Cl)cccc2Cl)c1=O)c1ccc(C(=O)O)c(OC)c1`, the half-inhibitory concentration (IC50) lay within 0.06 to 0.25 µM. With `CCN(C(=O)n1nnn(-c2c(Cl)cccc2Cl)c1=O)c1ccc(C(=O)OCc2ccccc2)c(Cl)c1`, the IC50 is 0.06 to 0.25 µM. The molecule `CCN(C(=O)n1nnn(-c2c(Cl)cccc2Cl)c1=O)c1ccc(C(=O)NS(=O)(=O)c2ccccc2)cc1` came in with an IC50 of 0.06 to 0.25 µM.
